Where two headings read alike, the source gives them in different places.
How the values were obtained:
[1] = known acceptors used in flash photolysis; cited from earlier work
[2] = Example 15: photographic sensitivity and fog, color format, blue sensitized emulsion T-2; settings: for Photographic Sensitivity SWR2B: control=100
Procedure: (§1) The AgBrI tabular silver halide emulsion T-2 from Example 3 was optimally chemically and spectrally sensitized by adding NaSCN, 1.07 mmole of the blue sensitizing dye D-I per mole of silver, Na3 Au(S2 O3)2 ·2H2 O, Na2 S2 O3 ·5H2 O, and a benzothiazolium finish modifier and then subjecting the emulsion to a heat cycle to 65° C. The hydroxybenzene, 2,4-disulfocatechcol (HB3) at a concentration of 13×10^-3 mole/mole Ag was added to the emulsion melt before the start of the chemical sensitization procedure. This chemically sensitized emulsion was then used to prepare the experimental coating variations given in Table X. For all the variations in Table X, the antifoggant and stabilizer tetraazaindene (TAI) was added to the emulsion melt in an amount of 1.75 g/mole Ag before any further addenda. The fragmentable two-electron donors S-3, S-9, S-6, or S-8 were then added to the emulsion melt.
(§2) The melts were prepared for coating by adding additional water, deionized gelatin and coating surfactants. Coatings were prepared by combining the emulsion melts with a melt containing deionized gelatin and an aqueous dispersion of the cyan-forming color coupler CC-1 and coating the resulting mixture on acetate support. The final coatings contained Ag at 0.81 g/m^2, coupler at 1.61 g/m^2, and gelatin at 3.23 g/m^2. The coatings were overcoated with a protective layer containing gelatin at 1.08 g/m^2, coating surfactants, and a bisvinylsulfonylmethyl ether as a gelatin hardening agent. The structure of the color coupler CC-1 is given below: [drawing 120]
(§3) For photographic evaluation, each of the coating strips was exposed for 0.01 sec to a 3000K color temperature tungsten lamp filtered to give an effective color temperature of 5500K and further filtered through a Kodak Wratten filter number 2B, and a step wedge ranging in density from 0 to 4 density units in 0.20 density steps. This exposure gives light absorbed mainly by the blue sensitizing dye. The exposed film strips were developed for 31/4 minutes in Kodak C-41 color developer. SWR2B, relative sensitivity for this filtered exposure, was evaluated at a cyan density of 0.15 units above fog.
(§4) The AgBrl tabular emulsion T-2 as described in Example 3 was sensitized as described in Example 10 except that the hydroxybenzene HB3 was added at the completion of the chemical sensitization procedure. For all the variations in Table XV the antifoggant and stabilizer tetraaazindene (TAI) was added to the emulsion melt in an amount of 1.75 g/mole Ag before any further addenda. The fragmentable electron donor compounds S-19, PMT-3, and PMT-4 were then added to the emulsion melt. The melts were then coated and tested as described in Example 10.

[3] = cited from earlier work
[4] = Example 16: photographic sensitivity and fog, color format, blue sensitized emulsion T-2
Procedure: as §1, §2, §3
as §4, with “XVI,” for “XV”, “tetraazaindene (TAI),” for “tetraaazindene (TAI)”, “two-electron” for “electron”, “TU-2” for “S-19, PMT-3,”, “TU-3” for “PMT-4”

[5] = as above; settings: control=100

O=C1C(Cl)=C(Cl)C(=O)C(Cl)=C1Cl [2,3,5,6-tetrachlorobenzoquinone]
reduction potential (Ered) [1]: 0.00 V

O=C1C=C(Cl)C(=O)C=C1Cl [2,5-dichlorobenzoquinone]
reduction potential (Ered) [1]: -0.18 V

CC(C(=O)O)N(CC(=O)O)c1ccc(S(=O)(=O)N2CCSCC2)cc1 (stereo not shown) [Compound S-19]
Fog ([2]; 4.4 x10^-6 mol/mol Ag): 0.06
Photographic Sensitivity SWR2B ([2]; 4.4 x10^-6 mol/mol Ag): 115
Fog ([2]; 8.8 x10^-6 mol/mol Ag): 0.08
Photographic Sensitivity SWR2B ([2]; 8.8 x10^-6 mol/mol Ag): 112

N#Cc1c2ccccc2c(C#N)c2ccccc12 [DCA, 9,10-dicyanoanthracene]
reduction potential (Ered) [1]: -0.91 V

CC(C(=O)O)N(CCC(=O)Nc1cccc(-n2nnnc2S)c1)c1ccc(C=O)cc1 (stereo not shown) [PMT-3]
Fog ([2]; 0.045 x10^-6 mol/mol Ag): 0.07
Photographic Sensitivity SWR2B ([2]; 0.045 x10^-6 mol/mol Ag): 151
Fog ([2]; 0.14 x10^-6 mol/mol Ag): 0.08
Photographic Sensitivity SWR2B ([2]; 0.14 x10^-6 mol/mol Ag): 151
Fog ([2]; 0.45 x10^-6 mol/mol Ag): 0.07
Photographic Sensitivity SWR2B ([2]; 0.45 x10^-6 mol/mol Ag): 141

CC(C(=O)O)N(CC(=O)O)c1ccc(S(=O)(=O)Nc2cccc(-n3nnnc3S)c2)cc1 (stereo not shown) [PMT-4]
Fog ([2]; 0.14 x10^-6 mol/mol Ag): 0.06
Photographic Sensitivity SWR2B ([2]; 0.14 x10^-6 mol/mol Ag): 115
Fog ([2]; 0.45 x10^-6 mol/mol Ag): 0.07
Photographic Sensitivity SWR2B ([2]; 0.45 x10^-6 mol/mol Ag): 120

[Cl][Sn][Cl] [SnCl2]
oxidation potential ([3]; SnCl2, CRC Handbook): ~ -0.10 V

N#Cc1ccc2c(C#N)c3cc(C#N)ccc3c(C#N)c2c1 [TCA, tetracyanoanthracene]
reduction potential (Ered) [1]: -0.44 V

CC(C(=O)O)N(CCC(=O)N(C)CCN(C)C(=S)N(C)C)c1ccccc1 (stereo not shown) [TU-2]
Fog ([4]; 0.45 x10^-6 mol/molAg): 0.08
Fog ([4]; 1.4 x10^-6 mol/molAg): 0.09
Fog ([4]; 4.5 x10^-6 mol/molAg): 0.11
Photographic Sensitivity SWR3B ([5]; 0.45 x10^-6 mol/molAg): 118
Photographic Sensitivity SWR3B ([5]; 1.4 x10^-6 mol/molAg): 135
Photographic Sensitivity SWR3B ([5]; 4.5 x10^-6 mol/molAg): 159

CC(C(=O)O)N(CCC(=O)N(C)CCN(C)C(=S)N(C)C)c1ccc(C=O)cc1 (stereo not shown) [TU-3]
Fog ([4]; 14 x10^-6 mol/molAg): 0.09
Fog ([4]; 45 x10^-6 mol/molAg): 0.09
Fog ([4]; 140 x10^-6 mol/molAg): 0.10
Photographic Sensitivity SWR3B ([5]; 14 x10^-6 mol/molAg): 145
Photographic Sensitivity SWR3B ([5]; 45 x10^-6 mol/molAg): 155
Photographic Sensitivity SWR3B ([5]; 140 x10^-6 mol/molAg): 166

N#Cc1ccc2c(C#N)c3ccccc3c(C#N)c2c1 [TriCA, 2,9,10-tricyanoanthracene]
reduction potential (Ered) [1]: -0.67 V

B [borohydride]
oxidation potential ([3]; literature): -0.48 V vs SCE

O=C1C=CC(=O)C(Cl)=C1 [chlorobenzoquinone]
reduction potential (Ered) [1]: -0.34 V

From US5747235A, “Silver halide light sensitive emulsion layer having enhanced photographic sensitivity” (Eastman Kodak Company, priority 1996, dated 1998)
